Reference: US6525079B2, “Anti-parasitic heterocycle compounds, agents, formulations, and methods of use thereof” (Pfizer Inc., priority 1998, dated 2003)

Tests used:
[1] = test system: Adult flies (Stomoxys calcitrans); assay: Test for insecticidal activity: topical application to adult flies, mortality after 24 hours; assay type: in vivo; details: 1 μl acetone solution applied to thorax of fly; mortality assessed 24 hours after dosing
Procedure: Test for Insecticidal Activity Adult flies (Stomoxys calcitrans) are collected and anaesthetized using CO2- 1 μl of an acetone solution containing the test substance is applied directly to the thorax of the fly. The flies are then placed carefully into a 50 ml tube covered with damp gauze to recover from the CO2. Negative controls have 1 μl of acetone dispensed onto them. Mortality is assessed 24 hours after dosing. The table below illustrates the in vivo activity of a selection of the substances of the invention against such flies. Dosages required to produce 100% mortality are expressed in μg/fly.

[2] = test system: Boophilus microplus larvae; assay: Test for acaricidal activity: treated filter paper envelope, larval mortality; assay type: in vivo; details: Rhipicephalus microplus, larvae exposed 48 hours at 25° C.; for mortality at 0.5 µg/cm2: dosage 0.5 μg/cm^2 on filter paper
Procedure: Test for Acaricidal Activity
A dose of 10 μg/cm^2 is created by evenly pipetting 0.5 ml of a 1 mg/ml solution of the test compound in a suitable solvent such as acetone or ethanol onto a Whatman No. 1 (Trade Mark) filter paper cut to a size of 8×6.25 cm. When dry, the paper is folded in half, sealed on two sides using a crimping device and placed in a Kilner jar containing a cotton wool pad dampened with water. The jar is then sealed and placed at 25° C. for 24 hours. Next, approximately 50 Boophilus microplus larvae are introduced into the treated paper envelope which is then crimped along the third side to effect a complete seal. The paper envelope is returned to the Kilner jar, which is sealed and placed at 25° C. for a further 48 hours. The papers are then removed and mortality assessed. Negative controls are provided by treating an appropriately cut filter paper with 0.5 ml of solvent only and following the same procedure. Activity at other doses is obtained by varying the concentration of the test solution. The table below illustrates the in vivo activity of a selection of the compounds of the invention against Boophilus microplus larvae. Dosages are expressed in μg/cm^2.

For `FC(F)(F)c1cc(Cl)c(-n2cc(C3CC3(Br)Br)nn2)c(Cl)c1` (centres unmarked) [Example 1, 4-(2,2-Dibromocyclopropyl)-1-(2,6-dichloro-4-trifluoromethylphenyl)-1,2,3-triazole], the “Dosage required to produce 100% mortality” value [1] was 0.005 μg/fly and the mortality at 0.5 µg/cm2 [2] was 90%.
`FC(F)(F)c1cc(Cl)c(-n2cc(C3CC3(Cl)Cl)nn2)c(Cl)c1` (centres unmarked) [Example 2, 4-(2,2-Dichlorocyclopropyl)-1-(2,6-dichloro-4-trifluoromethylphenyl)-1,2,3-triazole] was tested, and the “Dosage required to produce 100% mortality” value [1] was 0.01 μg/fly and the mortality at 1 µg/cm2 ([2]; dosage 1 μg/cm^2 on filter paper) was 100%.
In the case of `N#Cc1cn(-c2c(Cl)cc(C(F)(F)F)cc2Cl)cc1C1CC1(Br)Br` (centres unmarked) [Example 3, 3-Cyano-4-(2,2-dibromocyclopropyl)-1-(2,6-dichloro-4-trifluoromethylphenyl)pyrrole], the “Dosage required to produce 100% mortality” value [1] was 0.005 μg/fly and the mortality at 0.5 µg/cm2 [2] was 100%.
For `FC(F)(F)c1cc(Cl)c(-n2cc(C3CC3(Br)Br)c3ccccc32)c(Cl)c1` (centres unmarked) [Example 4, 3-(2,2-Dibromocyclopropyl)-1-(2,6-dichloro-4-trifluoromethylphenyl)indole], the “Dosage required to produce 100% mortality” value [1] was 0.05 μg/fly.
With `FC(F)(F)c1cc(Cl)c(-n2cnc(C3CC3(Br)Br)n2)c(Cl)c1` (centres unmarked) [Example 6, 3-(2,2-Dibromocyclopropyl)-1-(2,6-dichloro-4-trifluoromethylphenyl)-1,2,4-triazole] the “Dosage required to produce 100% mortality” value [1] was 0.01 μg/fly.
